Laboratory results taken from patent US7759345B2, “Antitumoral derivatives of ET-743” (priority 2001, dated 2010).
Like-named read-outs stand apart in the source and are kept apart here.

What was measured:
P-388 = test: Inhibition of cell growth by counting cells, P-388; type: cell-based, mouse; details: three days of incubation, read-out: IC50 (molar) P-388
Description: (§1) 1°.—Inhibition of Cell Growth by Counting Cells.
(§2) This form of the assay employs 24 well multidishes of 16 mm diameter (Bergeron, 1984; Schroeder, 1981). The tumor cell lines employed are: P-388 (ATCC CCL 46), suspension culture of a lymphoid neoplasm from a DBA/2 mouse; A-549 (ATCC CCL 185), monolayer culture of a human lung carcinoma; HT-29 (ATCC HTB-38), monolayer culture of a human colon carcinoma; MEL-28 (ATCC HTB-72), monolayer culture of a human melanoma and DU-145 (ATCC HTB-81), monolayer culture of a human prostate carcinoma.
(§3) Cells were maintained, in logarithmic phase of growth in Eagle's Minimum Essential Medium, with Earle's Balanced Salts, with non-essential amino acids, with 2.0 mM L-Glutamine, without sodium bicarbonate (EMEM/neaa), supplemented with 10% Fetal Calf Serum (FCS), 10^−2 M. sodium bicarbonate and 0.1 U/l penicillin G+0.1 g/l streptomycin sulfate. For the experiments, cells are harvested from subconfluent cultures using trypsin and resuspended in fresh medium before plating.
(§4) P-388 cells were seeded into 16 mm diameter wells at 1×10^4 cells per well in 1 ml aliquots of EMEM 5% FCS containing different concentrations of the sample to be tested. A separate set of cultures without drug was seeded as control of growth, to ensure that cells remained in exponential phase of growth. All determinations are carrying out in duplicate.
(§5) For quantifying the activity, after the incubation time, cells are trypsinized and counted in a Coulter Counter ZM. All counts (net cells per well), represent the average of duplicate wells. % G, percent of growth relative to cultures without drug. The results of these assays are used to generate dose-response curves from which more precise IC50 values are determined (sample concentration which produces 50% cell growth inhibition).
(§6) Obtained results may predict the usefulness of a certain drug as a potential cancer treatment. For this technique, compounds which show IC50 values smaller than 1 μg/ml are selected to continue with further studies. IC50's data allow to predict that not only could a drug be cystostatic, but also it could have a potential in terms of tumor reduction.

A-549 [1] = test: Inhibition of cell growth by counting cells, A-549; type: cell-based, human; details: three days of incubation, read-out: IC50 (molar) A-549
Outline: (§7)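 Counts are net cells per well, averaged from duplicate wells, obtained by Coulter counting after trypsinization following 72 h of exposure at 37 °C. Seeding was 1×10^4 cells per well in EMEM/5% FCS with varied sample concentrations, alongside untreated growth controls. IC50 values derive from dose-response curves of % growth.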

HT-29 [2] = test: Inhibition of cell growth by counting cells, HT-29; type: cell-based, human; details: three days of incubation, read-out: IC50 (molar) HT-29
Outline: as §7

MEL-28 = test: Inhibition of cell growth by counting cells, MEL-28; type: cell-based, human; details: three days of incubation, read-out: IC50 (molar) MEL-28
Description: as §1, §2, §3
as §4, with “A-549, HT-29, MEL-28 and DU-145” for “P-388”, “duplicate. After three days of incubation at 37° C., 5% CO2 in a 98% humid atmosphere cells were stained with 0.1% crystal violet. An approximately IC50 was determined by comparing the growth in wells with drug to the growth in wells control.” for “duplicate.”
as §5, §6

DU-145 = test: Inhibition of cell growth by counting cells, DU-145; type: cell-based, human; details: read-out: IC50 (molar) DU-145
Description: as §1, §2, §3
as §4, with “A-549, HT-29, MEL-28 and DU-145” for “P-388”, “duplicate. After three days of incubation at 37° C., 5% CO2 in a 98% humid atmosphere cells were stained with 0.1% crystal violet. An approximately IC50 was determined by comparing the growth in wells with drug to the growth in wells control.” for “duplicate.”
as §5, §6

A-549 [3] = test: Inhibition of cells growth by colorimetric assay (SRB), A-549; type: cell-based
Description: (§8) 2°.—Inhibition of Cells Growth by Colorimetric Assay.
(§9) A colorimetric type of assay, using sulforhodamine B (SRB) reaction has been adapted for a quantitative measurement of cell growth and viability [following the technique described by Philip Skehan, et al. (1990), New colorimetric cytotoxicity assay for anticancer drug screening, J. Natl. Cancer Inst., 82:1107-1112]
(§10) This form of the assay employs 96 well cell culture microplates of 9 mm diameter (Faircloth, 1988; Mosmann, 1983). Most of the cell lines are obtained from American Type Culture Collection (ATCC) derived from different human cancer types.
(§11) Cells are maintained in RPMI 1640 10% FBS, supplemented with 0.1 g/l penicillin and 0.1 g/l streptomycin sulfate and then incubated at 37° C., 5% CO2 and 98% humidity. For the experiments, cells were harvested from subconfluent cultures using trypsin and resuspended in fresh medium before plating.
(§12) Cells are seeded in 96 well microtiter plates, at 5×10^3 cells per well in aliquots of 195 μl medium, and they are allowed to attach to the plate surface by growing in drug free medium for 18 hours. Afterward, samples are added in aliquots of 5 μl in a ranging from 10 to 10^−8 μg/ml, dissolved in DMSO/EtOH/PBS (0.5:0.5:99). After 48 hours exposure, the antitumor effect are measured by the SRB methodology: cells are fixed by adding 50 μl of cold 50% (wt/vol) trichloroacetic acid (TCA) and incubating for 60 minutes at 4° C. Plates are washed with deionized water and dried. One hundred μl of SRB solution (0.4% wt/vol in 1% acetic acid) is added to each microtiter well and incubated for 10 minutes at room temperature. Unbound SRB is removed by washing with 1% acetic acid. Plates are air dried and bound stain is solubilized with Tris buffer. Optical densities are read on a automated spectrophotometric plate reader at a single wavelength of 490 nm.
(§13) The values for mean+/−SD of data from triplicate wells are calculated. Some parameters for cellular responses can be calculated: GI=growth inhibition, TGI=total growth inhibition (cytostatic effect) and LC=cell killing (cytotoxic effect).
as §6, with “GI50” for “IC50”, “10” for “1”, “GI50's” for “IC50's”

SK-MEL-28 = test: Inhibition of cells growth by colorimetric assay (SRB), SK-MEL-28; type: cell-based; details: Homo sapiens, SK-MEL-28, 48 h, SRB assay, 48 hours exposure; read-out: MEL-28 GI50
Description: as §8, §9, §10, §11, §12, §13
as §6, with “GI50” for “IC50”, “10” for “1”, “GI50's” for “IC50's”

HT-29 [4] = test: Inhibition of cells growth by colorimetric assay (SRB), HT-29; type: cell-based
Description: as §8, §9, §10, §11, §12, §13
as §6, with “GI50” for “IC50”, “10” for “1”, “GI50's” for “IC50's”

[5] = Homo sapiens, DU-145, 72 h, three days of incubation

SMILES | IC50 (P-388; Mus musculus, P388, 72 h) [nM] | IC50 (A-549 [1]; Homo sapiens, A549, 72 h) [nM] | IC50 (HT-29 [2]; Homo sapiens, HT-29, 72 h) [nM] | IC50 (MEL-28; Homo sapiens, SK-MEL-28, 72 h) [nM] | IC50 (DU-145; [5]) [nM] | further results
COc1cc2c(cc1OC(=O)C(F)(F)F)CCN[C@]21CS[C@@H]2c3c(OC(C)=O)c(C)c4c(c3[C@H](COC1=O)N1C2[C@H]2c3c(cc(C)c(OC)c3O)C[C@@H]([C@@H]1C#N)N2C)OCO4 (stereo partly drawn) [Compound 3] | 1.15 | 1.15 | 1.15 | 1.15 | 1.15 | –
COc1cc2c(cc1OC(=O)OC(C)(C)C)CCN[C@]21CS[C@@H]2c3c(OC(C)=O)c(C)c4c(c3[C@H](COC1=O)N1C2[C@H]2c3c(cc(C)c(OC)c3O)C[C@@H]([C@@H]1C#N)N2C)OCO4 (stereo partly drawn) [Compound 4] | 0.115 | 0.115 | 0.115 | 0.115 | 0.115 | –
COc1cc2c(cc1OC(=O)OC(C)(C)C)CCN[C@]21CS[C@@H]2c3c(OC(C)=O)c(C)c4c(c3[C@H](COC1=O)N1C2[C@H]2c3c(cc(C)c(OC)c3OC(=O)OC(C)(C)C)C[C@@H]([C@@H]1C#N)N2C)OCO4 (stereo partly drawn) [Compound 5] | 0.515 | 0.515 | 0.515 | 0.515 | 0.515 | –
CCCC(=O)Oc1cc2c(cc1OC)[C@@]1(CS[C@@H]3c4c(OC(C)=O)c(C)c5c(c4[C@H](COC1=O)N1C3[C@H]3c4c(cc(C)c(OC)c4O)C[C@@H]([C@@H]1C#N)N3C)OCO5)NCC2 (stereo partly drawn) [Compound 7] | 0.119 | 0.119 | 0.595 | 0.119 | 0.595 | –
COc1cc2c(cc1OC(=O)/C=C/c1ccccc1)CCN[C@]21CS[C@@H]2c3c(OC(C)=O)c(C)c4c(c3[C@H](COC1=O)N1C2[C@H]2c3c(cc(C)c(OC)c3O)C[C@@H]([C@@H]1C#N)N2C)OCO4 (stereo partly drawn) [Compound 8] | 0.111 | 0.111 | 0.556 | 0.111 | – | IC50 (DU-145; Homo sapiens, DU-145, 72 h): 0.556 nM
CCCC(=O)Oc1cc2c(cc1OC)[C@@]1(CS[C@@H]3c4c(OC(C)=O)c(C)c5c(c4[C@H](COC1=O)N1C3[C@H]3c4c(cc(C)c(OC)c4OC(=O)CCC)C[C@@H]([C@@H]1C#N)N3C)OCO5)NCC2 (stereo partly drawn) [Compound 9] | 0.11 | 0.11 | 0.11 | 0.11 | 0.11 | –
COc1cc2c(cc1OC(=O)/C=C/c1ccccc1)CCN[C@]21CS[C@@H]2c3c(OC(C)=O)c(C)c4c(c3[C@H](COC1=O)N1C2[C@H]2c3c(cc(C)c(OC)c3OC(=O)/C=C/c3ccccc3)C[C@@H]([C@@H]1C#N)N2C)OCO4 (stereo partly drawn) [Compound 10] | 9.7 | 9.7 | 9.7 | 9.7 | – | IC50 (DU-145; Homo sapiens, DU-145, 72 h): 9.7 nM
CCCCCCCC(=O)Oc1cc2c(cc1OC)[C@@]1(CS[C@@H]3c4c(OC(C)=O)c(C)c5c(c4[C@H](COC1=O)N1C3[C@H]3c4c(cc(C)c(OC)c4O)C[C@@H]([C@@H]1C#N)N3C)OCO5)NCC2 (stereo partly drawn) [Compound 14] | – | – | – | – | – | IC50 (P-388): 1.11 nM; IC50 (A-549 [1]): 1.11 nM; IC50 (HT-29 [2]): 1.11 nM; IC50 (MEL-28): 1.11 nM; IC50 (DU-145; three days of incubation): 1.11 nM
CCCCCCCC(=O)Oc1cc2c(cc1OC)[C@@]1(CS[C@@H]3c4c(OC(C)=O)c(C)c5c(c4[C@H](COC1=O)N1C3[C@H]3c4c(cc(C)c(OC)c4OC(=O)CCCCCCC)C[C@@H]([C@@H]1C#N)N3C)OCO5)NCC2 (stereo partly drawn) [Compound 15] | 97.8 | 97.8 | 97.8 | 97.8 | 97.8 | –
CCCCCCCCCCCCCCCC(=O)Oc1cc2c(cc1OC)[C@@]1(CS[C@@H]3c4c(OC(C)=O)c(C)c5c(c4[C@H](COC1=O)N1C3[C@H]3c4c(cc(C)c(OC)c4O)C[C@@H]([C@@H]1C#N)N3C)OCO5)NCC2 (stereo partly drawn) [Compound 16] | 9.91 | 9.91 | 9.91 | 9.91 | 9.91 | –
COc1cc2c(cc1OC(=O)OC(C)(C)C)CCN[C@]21CS[C@@H]2c3c(OC(C)=O)c(C)c4c(c3[C@H](COC1=O)N1C2[C@@H]2N[C@@H](Cc3cc(C)c(OC)c(O)c32)[C@@H]1C#N)OCO4 (stereo partly drawn) [Compound 189] | 0.583 | 0.583 | 0.583 | 0.583 | – | –
COc1cc2c(cc1OC(=O)OC(C)(C)C)CCN[C@]21CS[C@@H]2c3c(OC(C)=O)c(C)c4c(c3[C@H](COC1=O)N1C2[C@H]2c3c(cc(C)c(OC)c3O)C[C@@H]([C@@H]1C#N)N2C(=O)OC(C)(C)C)OCO4 (stereo partly drawn) [Compound 190] | 5.22 | 5.22 | 5.22 | 5.22 | – | –
C=CCOc1c(OC)c(C)cc2c1[C@H]1N[C@@H](C2)[C@H](C#N)N2C1[C@@H]1SC[C@]3(NCCc4cc(O)c(OC)cc43)C(=O)OC[C@H]2c2c3c(c(C)c(OC(C)=O)c21)OCO3 (stereo partly drawn) [Compound 201] | 12.6 | 15.7 | 15.7 | 15.7 | – | –
CCCCCCCCCCCCCCCC(=O)Oc1cc2c(cc1OC)[C@@]1(CS[C@@H]3c4c(OC(C)=O)c(C)c5c(c4[C@H](COC1=O)N1C3[C@@H]3N[C@@H](Cc4cc(C)c(OC)c(O)c43)[C@@H]1O)OCO5)NCC2 (stereo partly drawn) [Compound 215] | – | – | – | – | – | GI50 (A-549 [3]; Homo sapiens, A549, 48 h, SRB assay, 48 hours exposure, read-out: A-549 GI50): 92.4 nM; LC50 (concentration for 50% cell killing) (A-549 [3]; Homo sapiens, A549, 48 h, read-out: A-549 LC50, SRB assay, 48 hours exposure): 10100 nM; A-549 TGI (A-549 [3]; SRB assay, 48 hours exposure): 1.01E-05; GI50 (SK-MEL-28): 19.7 nM; GI50 (HT-29 [4]; Homo sapiens, HT-29, 48 h, SRB assay, 48 hours exposure, read-out: HT-29 GI50): 86.8 nM; LC50 (concentration for 50% cell killing) (HT-29 [4]; Homo sapiens, HT-29, 48 h, read-out: HT-29 LC50, SRB assay, 48 hours exposure): 10100 nM; HT-29 TGI (HT-29 [4]; SRB assay, 48 hours exposure): 1.01E-05
